Data set [1] can be described thus: Half life in beagle dog at 1 mg/kg, iv by LC-MS/MS analysis. Format: ADME, organism-based, Canis lupus familiaris. To be noted: in vivo.
A short description of data set [2]: Oral bioavailability in beagle dog at 3 mg/kg by LC-MS/MS analysis. To be noted: in vivo. It is filed as ADME, organism-based, Canis lupus familiaris.
A short description of data set [3]: Oral bioavailability in Sprague-Dawley rat at 5 mg/kg by LC-MS/MS analysis. To be noted: in vivo. It is filed as ADME, organism-based.
Data set [4] can be described thus: Protein binding in rat brain at 5 uM after 5 hrs by equilibrium dialysis method. It is filed as ADME, tissue-based. The settings on record: read-out: PB (converted). For orientation: In equilibrium dialysis only unbound substance equilibrates across the membrane.
Data set [5] can be described thus: Protein binding in human plasma at 1 uM after 6 hrs by equilibrium dialysis method. It is filed as ADME, cell-free. To be noted: read-out: PPB (converted).
Data set [6] is described as follows: Volume of distribution at steady state in beagle dog at 1 mg/kg, iv or 3 mg/kg, po by LC-MS/MS analysis. It is filed as ADME, organism-based, Canis lupus familiaris. The settings on record: in vivo, read-out: Vdss.
Data set [7] is described as follows: Volume of distribution at steady state in Sprague-Dawley rat at 1 mg/kg, iv or 5 mg/kg, po by LC-MS/MS analysis. Format: ADME, organism-based. The settings on record: in vivo, read-out: Vdss.
Data set [8] deals with Rattus norvegicus. Kind of data set: Inhibition of Bz-ATP-induced IL-1beta release in sc dosed Sprague-Dawley rat hippocampus preincubated for 1 hr followed by Bz-ATP challenge measured after 2 hrs by microdialysis method. Format: functional, organism-based.
A further data set addresses Cytochrome P450 2D6 (Homo sapiens, UniProt P10635). Kind of data set: Inhibition of CYP2D6 in human liver microsomes using dextromethorphan as substrate after 15 mins by LC-MS/MS analysis. Format: ADME. A general note: Microsomes from liver hold many membrane-bound enzymes, among them those of drug oxidation.
Data set [9] has as its target Voltage-gated inwardly rectifying potassium channel KCNH2 (Homo sapiens, UniProt Q12809). The data set can be described thus: Inhibition of [3H]-dofetilide binding to human ERG expressed in HEK293 cells. It is filed as cell-based.
For a further data set, the target named is Cytochrome P450 2C9 (Homo sapiens, UniProt P11712). Kind of data set: Inhibition of CYP2C9 in human liver microsomes using diclofenac as substrate after 15 mins by LC-MS/MS analysis. It is filed as ADME.
Chain of Cytochrome P450 2C9 (P11712 whole entry): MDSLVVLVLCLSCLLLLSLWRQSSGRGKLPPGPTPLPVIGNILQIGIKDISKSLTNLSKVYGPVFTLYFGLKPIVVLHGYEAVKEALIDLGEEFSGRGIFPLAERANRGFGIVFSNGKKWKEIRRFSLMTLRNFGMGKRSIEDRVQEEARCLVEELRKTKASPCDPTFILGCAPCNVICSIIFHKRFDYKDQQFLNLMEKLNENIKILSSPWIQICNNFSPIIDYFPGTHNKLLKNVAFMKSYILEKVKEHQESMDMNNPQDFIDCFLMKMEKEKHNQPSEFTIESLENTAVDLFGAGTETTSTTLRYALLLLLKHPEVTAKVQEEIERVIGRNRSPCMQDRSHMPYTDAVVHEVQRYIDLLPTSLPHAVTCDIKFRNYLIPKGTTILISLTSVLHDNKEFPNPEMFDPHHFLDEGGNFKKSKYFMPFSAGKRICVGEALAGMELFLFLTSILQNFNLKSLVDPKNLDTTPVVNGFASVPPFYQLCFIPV
Data set [10] is described as follows: Protein binding in rat plasma at 1 uM after 6 hrs by equilibrium dialysis method. It is filed as ADME, cell-free. To be noted: read-out: PPB (converted).
Data set [11] in a line: Solubility of compound in phosphate buffer at pH 7 after 3 days. It is filed as physicochemical.
For another data set, the target named is Cytochrome P450 2C19 (Homo sapiens, UniProt P33261). Kind of data set: Inhibition of CYP2C19 in human liver microsomes using S-mephenytoin as substrate after 15 mins by LC-MS/MS analysis. Format: ADME.
Chain of Cytochrome P450 2C19 (P33261 whole entry): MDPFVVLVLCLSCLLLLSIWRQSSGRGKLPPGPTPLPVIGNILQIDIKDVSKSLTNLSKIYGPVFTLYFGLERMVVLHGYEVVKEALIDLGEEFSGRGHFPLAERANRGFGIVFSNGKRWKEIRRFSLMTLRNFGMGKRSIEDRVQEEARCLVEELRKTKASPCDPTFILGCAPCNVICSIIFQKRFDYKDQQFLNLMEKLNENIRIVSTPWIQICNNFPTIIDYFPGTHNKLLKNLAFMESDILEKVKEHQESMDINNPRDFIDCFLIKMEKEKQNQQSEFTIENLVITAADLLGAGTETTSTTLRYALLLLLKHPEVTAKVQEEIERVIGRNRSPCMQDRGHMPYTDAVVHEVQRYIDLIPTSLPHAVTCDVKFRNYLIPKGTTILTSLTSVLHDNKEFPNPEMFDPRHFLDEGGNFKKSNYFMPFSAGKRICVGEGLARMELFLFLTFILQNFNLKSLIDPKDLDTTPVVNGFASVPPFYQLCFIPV
Data set [12] is described as follows: Protein binding in mouse plasma at 1 uM after 6 hrs by equilibrium dialysis method. Format: ADME, cell-free. To be noted: read-out: PPB (converted).
A short description of data set [13]: Clearance in beagle dog at 1 mg/kg, iv or 3 mg/kg, po by LC-MS/MS analysis. The settings on record: in vivo. It is filed as ADME, organism-based, Canis lupus familiaris.
The next data set concerns the target T1, Cytochrome P450 1A2 (Homo sapiens, UniProt P05177).
T1 sequence (P05177 whole entry): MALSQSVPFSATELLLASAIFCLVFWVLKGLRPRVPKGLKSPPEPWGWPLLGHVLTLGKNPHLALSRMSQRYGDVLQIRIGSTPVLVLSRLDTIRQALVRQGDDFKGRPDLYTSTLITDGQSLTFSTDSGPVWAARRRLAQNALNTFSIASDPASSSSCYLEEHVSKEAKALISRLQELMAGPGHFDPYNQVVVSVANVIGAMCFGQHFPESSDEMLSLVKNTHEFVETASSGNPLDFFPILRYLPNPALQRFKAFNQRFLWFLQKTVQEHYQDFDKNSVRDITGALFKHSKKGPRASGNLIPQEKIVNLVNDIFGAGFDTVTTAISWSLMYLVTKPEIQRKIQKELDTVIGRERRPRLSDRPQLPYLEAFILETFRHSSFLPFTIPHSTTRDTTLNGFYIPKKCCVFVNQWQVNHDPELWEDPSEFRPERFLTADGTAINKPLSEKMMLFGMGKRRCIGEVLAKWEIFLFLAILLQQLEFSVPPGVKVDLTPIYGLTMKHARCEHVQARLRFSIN
The data set can be described thus: Inhibition of CYP1A2 in human liver microsomes using phenacetin as substrate after 15 mins by LC-MS/MS analysis. It is filed as ADME.

In a further data set the target is T2, Cytochrome P450 2C8 (Homo sapiens, UniProt P10632).
T2 sequence (P10632 whole entry): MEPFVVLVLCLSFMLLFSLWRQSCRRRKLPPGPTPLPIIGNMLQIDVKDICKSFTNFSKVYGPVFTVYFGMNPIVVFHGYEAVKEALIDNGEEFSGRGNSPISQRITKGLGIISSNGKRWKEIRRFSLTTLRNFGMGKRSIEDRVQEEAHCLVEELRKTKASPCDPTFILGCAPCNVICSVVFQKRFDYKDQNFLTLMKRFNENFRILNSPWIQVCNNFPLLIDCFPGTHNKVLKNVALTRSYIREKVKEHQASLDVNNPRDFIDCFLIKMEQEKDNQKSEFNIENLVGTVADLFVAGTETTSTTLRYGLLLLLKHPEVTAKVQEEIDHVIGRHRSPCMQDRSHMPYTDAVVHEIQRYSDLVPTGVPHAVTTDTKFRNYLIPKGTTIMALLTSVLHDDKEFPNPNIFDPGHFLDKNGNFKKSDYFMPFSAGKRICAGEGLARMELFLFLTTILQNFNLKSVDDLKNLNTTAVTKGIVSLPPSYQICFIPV
The data set can be described thus: Inhibition of CYP2C8 in human liver microsomes using paclitaxel as substrate after 15 mins by LC-MS/MS analysis. It is filed as ADME.

A short description of data set [14]: Clearance in Sprague-Dawley rat at 1 mg/kg, iv or 5 mg/kg, po by LC-MS/MS analysis. To be noted: in vivo. It is filed as ADME, organism-based.
The subject of data set [15] is Rattus norvegicus. Kind of data set: Ex vivo receptor occupancy at P2X7 in sc dosed Sprague-Dawley rat brain after 60 mins by autoradiography. It is filed as functional.
Data set [16] can be described thus: Solubility of compound in phosphate buffer at pH 2 after 3 days. It is filed as physicochemical.
The next data set deals with Cytochrome P450 3A4 (Homo sapiens, UniProt P08684). The data set can be described thus: Inhibition of CYP3A4 in human liver microsomes using midazolam as substrate after 15 mins by LC-MS/MS analysis. Format: ADME.
Chain of Cytochrome P450 3A4 (P08684 whole entry): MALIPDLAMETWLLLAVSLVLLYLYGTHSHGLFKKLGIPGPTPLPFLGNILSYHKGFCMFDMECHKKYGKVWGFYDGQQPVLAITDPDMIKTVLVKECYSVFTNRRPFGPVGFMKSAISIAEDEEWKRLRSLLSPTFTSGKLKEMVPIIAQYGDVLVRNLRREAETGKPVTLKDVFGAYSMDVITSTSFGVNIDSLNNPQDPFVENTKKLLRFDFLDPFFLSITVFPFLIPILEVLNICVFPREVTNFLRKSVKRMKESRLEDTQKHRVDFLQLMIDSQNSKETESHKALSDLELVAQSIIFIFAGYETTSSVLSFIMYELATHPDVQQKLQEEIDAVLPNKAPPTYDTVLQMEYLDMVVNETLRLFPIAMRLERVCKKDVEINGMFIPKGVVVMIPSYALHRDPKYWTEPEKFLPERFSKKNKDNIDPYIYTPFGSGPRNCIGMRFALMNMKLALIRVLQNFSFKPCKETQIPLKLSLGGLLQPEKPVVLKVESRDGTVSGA
Data set [17] is described as follows: Half life in Sprague-Dawley rat at 1 mg/kg, iv by LC-MS/MS analysis. Format: ADME, organism-based. To be noted: in vivo.
The test system of data set [18] is Rattus norvegicus. Kind of data set: Drug level in Sprague-Dawley rat treated with(R)-(2-Chloro-3-(trifluoromethyl)phenyl)(4-methyl-1-(pyrimidin-2-yl)-1,4,6,7-tetrahydro-5H-[1,2,3]triazolo[4,5-c]pyridin-5-yl)methanone at 1 mg/kg, iv or 5 mg/kg, po by LC-MS/MS analysis. Format: ADME, organism-based. To be noted: in vivo.

The structures appear in SMILES notation. In brackets after ≈: the same amount, converted by molar mass.

Chain of Voltage-gated inwardly rectifying potassium channel KCNH2 (Q12809 whole entry): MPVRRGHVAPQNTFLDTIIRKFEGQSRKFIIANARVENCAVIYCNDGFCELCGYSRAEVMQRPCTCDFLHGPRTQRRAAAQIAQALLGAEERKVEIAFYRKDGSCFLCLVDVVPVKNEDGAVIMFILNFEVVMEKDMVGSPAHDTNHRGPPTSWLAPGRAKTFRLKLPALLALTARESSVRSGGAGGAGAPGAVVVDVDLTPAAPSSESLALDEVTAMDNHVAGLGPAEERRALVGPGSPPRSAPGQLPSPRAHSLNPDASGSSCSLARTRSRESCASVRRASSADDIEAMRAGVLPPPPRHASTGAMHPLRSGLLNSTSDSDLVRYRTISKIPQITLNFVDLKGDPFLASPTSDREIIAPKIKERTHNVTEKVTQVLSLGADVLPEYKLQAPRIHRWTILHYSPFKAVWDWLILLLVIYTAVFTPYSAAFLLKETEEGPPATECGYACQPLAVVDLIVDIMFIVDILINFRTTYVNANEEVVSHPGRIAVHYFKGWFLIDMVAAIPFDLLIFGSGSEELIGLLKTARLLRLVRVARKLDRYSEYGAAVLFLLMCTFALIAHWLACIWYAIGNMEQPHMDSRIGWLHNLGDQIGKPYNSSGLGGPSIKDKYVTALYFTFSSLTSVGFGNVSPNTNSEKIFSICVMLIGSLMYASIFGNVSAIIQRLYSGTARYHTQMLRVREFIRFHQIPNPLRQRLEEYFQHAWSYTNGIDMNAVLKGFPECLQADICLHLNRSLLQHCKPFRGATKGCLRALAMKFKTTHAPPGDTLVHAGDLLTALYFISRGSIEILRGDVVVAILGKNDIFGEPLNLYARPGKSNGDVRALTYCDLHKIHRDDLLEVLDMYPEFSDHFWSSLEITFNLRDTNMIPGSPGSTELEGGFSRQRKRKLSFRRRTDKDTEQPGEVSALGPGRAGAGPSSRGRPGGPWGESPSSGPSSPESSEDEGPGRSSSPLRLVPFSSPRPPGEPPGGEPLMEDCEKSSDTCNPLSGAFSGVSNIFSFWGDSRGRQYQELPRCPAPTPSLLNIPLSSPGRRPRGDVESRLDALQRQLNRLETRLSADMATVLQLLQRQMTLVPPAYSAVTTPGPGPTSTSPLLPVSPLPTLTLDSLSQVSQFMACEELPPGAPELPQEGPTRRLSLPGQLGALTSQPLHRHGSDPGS
Chain of Cytochrome P450 2D6 (P10635 whole entry): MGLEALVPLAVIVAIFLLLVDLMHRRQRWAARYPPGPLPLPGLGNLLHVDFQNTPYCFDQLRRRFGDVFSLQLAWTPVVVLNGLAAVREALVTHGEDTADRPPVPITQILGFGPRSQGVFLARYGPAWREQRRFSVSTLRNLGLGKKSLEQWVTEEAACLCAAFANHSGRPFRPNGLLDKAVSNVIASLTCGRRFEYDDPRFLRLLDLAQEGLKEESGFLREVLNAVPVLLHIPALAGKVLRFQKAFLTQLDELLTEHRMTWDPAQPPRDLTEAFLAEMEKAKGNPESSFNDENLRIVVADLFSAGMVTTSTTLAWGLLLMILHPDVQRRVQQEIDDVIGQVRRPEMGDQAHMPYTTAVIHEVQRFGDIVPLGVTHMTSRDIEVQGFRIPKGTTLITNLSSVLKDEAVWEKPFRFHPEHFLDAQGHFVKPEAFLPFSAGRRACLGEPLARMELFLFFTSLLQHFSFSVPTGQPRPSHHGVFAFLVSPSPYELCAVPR

`C[C@@H]1c2nnn(-c3cnccn3)c2CCN1C(=O)c1cccc(C(F)(F)F)c1Cl`: the half-life in [1] is 2.4 h; in data set [17], 1.5 h. Besides, the bioavailability worked out at 65% in [2] and 77% in data set [3]. In data set [4], the fraction unbound at 5 h, 5 µM was 0.05. The fraction unbound at 6 h, 1 µM in data set [5] is 0.084; in data set [10], 0.063; in [12] it was 0.053. The Vd in [6] stood at 3.3 L/kg; in data set [7], 3 L/kg. Moreover, the inhibition result with Rattus norvegicus [8] is “Dose-dependent effect”. In addition, the IC50 at Cytochrome P450 2D6 is more than 10 µM; in data set [9], more than 10 µM; on Cytochrome P450 2C9 it was more than 10 µM; against Cytochrome P450 2C19, 4.3 µM; at Cytochrome P450 1A2 it was more than 10 µM; against Cytochrome P450 2C8 it was more than 10 µM. The IC50 against Cytochrome P450 3A4 is 2.3 µM. In addition, the results for the solubility at 72 h in data set [11] and in data set [16] were 94.4 µM (≈ 39.9 µg/mL) and 48.2 µM (≈ 20.4 µg/mL), respectively. In addition, the clearance in data set [13] was found to be 33 mL/min/kg; in [14], 46 mL/min/kg. Also, the Occ result with Rattus norvegicus [15] was “Dose-dependent effect”. Besides, the 50% effective dose (ED50) in the data set on Rattus norvegicus [15] (1 h) was 0.3 mg/kg.
Turning to `C[C@@H]1c2nn[nH]c2CCN1C(=O)c1cccc(C(F)(F)F)c1Cl`, in the data set on Rattus norvegicus [18], the Drug metabolism result was “Metabolite_Detected”.

Broadly, the half-life is how long it takes for the measured level to halve. Read a low half-life as fast loss. What is called bioavailability is the share of a dose that reaches the circulation, judged against a reference dose that is usually intravenous. Higher therefore signals good availability. As usually defined, the IC50 is the concentration that gives 50% inhibition. In general, solubility refers to how much of the substance goes into solution per volume. Low readings indicate a poorly soluble substance, high ones a readily soluble substance. By ED50 is commonly meant the midpoint of the dose-response relation. A higher ED50 goes with weaker potency.

For the origin of these results see ChEMBL document CHEMBL4052642, “4-Methyl-6,7-dihydro-4H-triazolo[4,5-c]pyridine-Based P2X7 Receptor Antagonists: Optimization of Pharmacokinetic Properties Leading to the Identification of a Clinical Candidate” (J Med Chem, 2017).
